Series [1] can be described thus: refractive index (Na D-line) (dimensionless). Conditions: 101.33 kPa, Liquid, Standard Abbe refractometry.
The conditions of series [2]: 101.33 kPa, Liquid, Vibrating tube method.

SMILES strings stand for the structures. ± gives the expanded uncertainty stated by the source.

As to `CCCC[n+]1ccn(C)c1.O=S(=O)([N-]S(=O)(=O)C(F)(F)F)C(F)(F)F`, the refractive index in series [1] (293.15 K) worked out at 1.42853 ± 0.0008; in series [1] (298.15 K) it was 1.42653 ± 0.00075; in series [1] (313.15 K) it was 1.42251 ± 0.00075; in series [1] (333.15 K) it was 1.41648 ± 0.00076. Besides, the mass density is listed as 1440.8 ± 2.1 kg/m3 in series [2] (293.15 K), 1436 ± 2.1 kg/m3 in series [2] (298.15 K), 1421.6 ± 2.1 kg/m3 in series [2] (313.15 K) and 1402.6 ± 2.1 kg/m3 in series [2] (333.15 K).
Consider `CC(=O)[O-].CCCCCCCCCCCCCC[P+](CCCCCC)(CCCCCC)CCCCCC` [trihexyl(tetradecyl)phosphonium acetate], for which the refractive index in series [1] (293.15 K) stood at 1.48377 ± 0.00087; in series [1] (298.15 K), 1.48176 ± 0.00085; in series [1] (313.15 K), 1.47674 ± 0.00084; in series [1] (333.15 K), 1.47072 ± 0.00083. In addition, the mass density is 894.5 ± 2.1 kg/m3 in series [2] (293.15 K), 891.3 ± 2.1 kg/m3 in series [2] (298.15 K), 882.3 ± 2.1 kg/m3 in series [2] (313.15 K) and 870.4 ± 2.1 kg/m3 in series [2] (333.15 K).
On to `CCCCCC[n+]1ccn(C)c1.O=S(=O)([N-]S(=O)(=O)C(F)(F)F)C(F)(F)F`, for which the refractive index in series [1] (293.15 K) amounted to 1.43155 ± 0.0008; in series [1] (298.15 K), 1.42954 ± 0.00075; in series [1] (313.15 K) it was 1.42552 ± 0.00074; in series [1] (333.15 K) it was 1.4205 ± 0.00074. The mass density in series [2] (293.15 K) amounted to 1375.5 ± 2.1 kg/m3; in series [2] (298.15 K), 1371 ± 2.1 kg/m3; in series [2] (313.15 K) it was 1357.2 ± 2.1 kg/m3; in series [2] (333.15 K), 1339.1 ± 2.1 kg/m3.
In the case of `CCCCCCn1cc[n+](C)c1.F[P-](F)(F)(F)(F)F` [1-hexyl-3-methylimidazolium hexafluorophosphate], the refractive index in series [1] (293.15 K) is reported as 1.41849 ± 0.0008; in series [1] (298.15 K), 1.41648 ± 0.00073; in series [1] (313.15 K) it was 1.41346 ± 0.00073; in series [1] (333.15 K) it was 1.40844 ± 0.00074. Further, the mass density amounted to 1296.4 ± 2 kg/m3 in series [2] (293.15 K), 1292.4 ± 2 kg/m3 in series [2] (298.15 K), 1280.4 ± 2 kg/m3 in series [2] (313.15 K) and 1264.9 ± 2 kg/m3 in series [2] (333.15 K).
Consider `CCCCCCCCn1cc[n+](C)c1.O=S(=O)([N-]S(=O)(=O)C(F)(F)F)C(F)(F)F`, for which the refractive index worked out at 1.43457 ± 0.0008 in series [1] (293.15 K), 1.43256 ± 0.00075 in series [1] (298.15 K), 1.42854 ± 0.00075 in series [1] (313.15 K) and 1.42251 ± 0.00076 in series [1] (333.15 K). Moreover, the mass density in series [2] (293.15 K) is 1323.4 ± 2.1 kg/m3; in series [2] (298.15 K) it was 1318.9 ± 2.1 kg/m3; in series [2] (313.15 K), 1305.5 ± 2.1 kg/m3; in series [2] (333.15 K) it was 1288 ± 2 kg/m3.
On to `CC(=O)[O-].CCCCn1cc[n+](C)c1` [1-butyl-3-methylimidazolium acetate], for which the refractive index came out at 1.49481 ± 0.0008 in series [1] (293.15 K), 1.49381 ± 0.00083 in series [1] (298.15 K), 1.48879 ± 0.00083 in series [1] (313.15 K) and 1.48377 ± 0.00081 in series [1] (333.15 K). For the same compound, the mass density in series [2] (293.15 K) was 1056.2 ± 2.2 kg/m3; in series [2] (298.15 K), 1053.2 ± 2.2 kg/m3; in series [2] (313.15 K), 1044 ± 2.2 kg/m3; in series [2] (333.15 K), 1032.2 ± 2.2 kg/m3.
On to `CCCCn1cc[n+](C)c1.F[B-](F)(F)F` [1-butyl-3-methylimidazolium tetrafluoroborate], for which the refractive index came to 1.42251 ± 0.00072 in series [1] (293.15 K), 1.4215 ± 0.00074 in series [1] (298.15 K), 1.41748 ± 0.00074 in series [1] (313.15 K) and 1.41246 ± 0.00074 in series [1] (333.15 K). Further, the mass density in series [2] (293.15 K) amounted to 1202.9 ± 2 kg/m3; in series [2] (298.15 K) it was 1199.4 ± 2 kg/m3; in series [2] (313.15 K) it was 1188.7 ± 2 kg/m3; in series [2] (333.15 K) it was 1174.6 ± 2 kg/m3.
For the compound `CCCCCCCCCCCCCC[P+](CCCCCC)(CCCCCC)CCCCCC.O=S(=O)([O-])C(F)(F)F`, the refractive index is reported as 1.45967 ± 0.0008 in series [1] (293.15 K), 1.45766 ± 0.00075 in series [1] (298.15 K), 1.45365 ± 0.00076 in series [1] (313.15 K) and 1.44662 ± 0.00078 in series [1] (333.15 K). The mass density was determined as 985.6 ± 2 kg/m3 in series [2] (293.15 K), 982.3 ± 2 kg/m3 in series [2] (298.15 K), 972.5 ± 2 kg/m3 in series [2] (313.15 K) and 959.6 ± 2 kg/m3 in series [2] (333.15 K).
With `CCCCCCCCCCCCn1cc[n+](C)c1.O=S(=O)([N-]S(=O)(=O)C(F)(F)F)C(F)(F)F`, the refractive index is on record as 1.43958 ± 0.0008 in series [1] (293.15 K), 1.43758 ± 0.00075 in series [1] (298.15 K), 1.43356 ± 0.00075 in series [1] (313.15 K) and 1.42754 ± 0.00076 in series [1] (333.15 K). Also, the mass density is 1249 ± 2 kg/m3 in series [2] (293.15 K), 1244.7 ± 2 kg/m3 in series [2] (298.15 K), 1231.8 ± 2 kg/m3 in series [2] (313.15 K) and 1215.1 ± 2 kg/m3 in series [2] (333.15 K).
Take `CCCCCCCCCCCCCCn1cc[n+](C)c1.O=S(=O)([N-]S(=O)(=O)C(F)(F)F)C(F)(F)F`: the figures for the refractive index in series [1] (313.15 K) and in series [1] (333.15 K) were 1.43456 ± 0.00076 and 1.42854 ± 0.00076, respectively. For the same compound, the mass density in series [2] (313.15 K) came to 1200.6 ± 2 kg/m3; in series [2] (333.15 K), 1184 ± 2 kg/m3.
For `CCn1cc[n+](C)c1.O=S(=O)([N-]S(=O)(=O)C(F)(F)F)C(F)(F)F`, the refractive index is 1.42351 ± 0.00072 in series [1] (293.15 K), 1.42251 ± 0.00074 in series [1] (298.15 K), 1.41849 ± 0.00074 in series [1] (313.15 K) and 1.41346 ± 0.00074 in series [1] (333.15 K). The mass density in series [2] (293.15 K) came out at 1519.7 ± 2.1 kg/m3; in series [2] (298.15 K) it was 1514.7 ± 2.1 kg/m3; in series [2] (313.15 K), 1499.6 ± 2.1 kg/m3; in series [2] (333.15 K) it was 1479.7 ± 2.1 kg/m3.
As for `CCCCn1cc[n+](C)c1.COS(=O)(=O)[O-]` [1-butyl-3-methylimidazolium methyl sulfate], the refractive index in series [1] (293.15 K) is 1.47876 ± 0.00072; in series [1] (298.15 K), 1.47775 ± 0.00072; in series [1] (313.15 K), 1.47473 ± 0.00073; in series [1] (333.15 K), 1.46971 ± 0.00074. Besides, the mass density in series [2] (293.15 K) came to 1214.7 ± 2 kg/m3; in series [2] (298.15 K), 1211.3 ± 2 kg/m3; in series [2] (313.15 K), 1201.5 ± 2 kg/m3; in series [2] (333.15 K), 1188.4 ± 2 kg/m3.
For the compound `CCCCn1cc[n+](C)c1.O=S(=O)([O-])C(F)(F)F` [1-butyl-3-methylimidazolium trifluoromethanesulfonate], the refractive index in series [1] (293.15 K) is given as 1.43758 ± 0.00072; in series [1] (298.15 K), 1.43657 ± 0.00076; in series [1] (313.15 K), 1.43155 ± 0.00076; in series [1] (333.15 K), 1.42552 ± 0.00076. The mass density was determined as 1303.5 ± 2 kg/m3 in series [2] (293.15 K), 1299.5 ± 2 kg/m3 in series [2] (298.15 K), 1287.7 ± 2 kg/m3 in series [2] (313.15 K) and 1272.1 ± 2 kg/m3 in series [2] (333.15 K).
Take `CCCCn1cc[n+](C)c1.F[P-](F)(F)(F)(F)F` [1-butyl-3-methylimidazolium hexafluorophosphate]: the refractive index turned out to be 1.41045 ± 0.0008 in series [1] (293.15 K), 1.40844 ± 0.00073 in series [1] (298.15 K), 1.40543 ± 0.00073 in series [1] (313.15 K) and 1.4004 ± 0.00074 in series [1] (333.15 K). The mass density in series [2] (293.15 K) was 1367.9 ± 2.1 kg/m3; in series [2] (298.15 K), 1363.7 ± 2.1 kg/m3; in series [2] (313.15 K), 1351.3 ± 2.1 kg/m3; in series [2] (333.15 K) it was 1334.9 ± 2.1 kg/m3.
On to `CCCCCCCCCCCCCC[P+](CCCCCC)(CCCCCC)CCCCCC.O=S(=O)([N-]S(=O)(=O)C(F)(F)F)C(F)(F)F`, for which the refractive index in series [1] (293.15 K) is 1.45164 ± 0.0008; in series [1] (298.15 K), 1.44963 ± 0.00075; in series [1] (313.15 K) it was 1.44561 ± 0.00076; in series [1] (333.15 K), 1.43858 ± 0.00078. The mass density in series [2] (293.15 K) came to 1069.1 ± 2 kg/m3; in series [2] (298.15 K), 1065.4 ± 2 kg/m3; in series [2] (313.15 K) it was 1054.5 ± 2 kg/m3; in series [2] (333.15 K), 1039.9 ± 2 kg/m3.
Turning to `CCCCCCCC[n+]1ccn(C)c1.F[P-](F)(F)(F)(F)F` [1-octyl-3-methylimidazolium hexafluorophosphate], the refractive index in series [1] (293.15 K) was found to be 1.42452 ± 0.00072; in series [1] (298.15 K), 1.42351 ± 0.00074; in series [1] (313.15 K) it was 1.41949 ± 0.00075; in series [1] (333.15 K), 1.41347 ± 0.00076. Also, the mass density in series [2] (293.15 K) is on record as 1237.8 ± 2 kg/m3; in series [2] (298.15 K), 1234 ± 2 kg/m3; in series [2] (313.15 K), 1222.4 ± 2 kg/m3; in series [2] (333.15 K), 1207.5 ± 2 kg/m3.
Regarding `CCCCCCCCCCn1cc[n+](C)c1.O=S(=O)([N-]S(=O)(=O)C(F)(F)F)C(F)(F)F`, the refractive index turned out to be 1.43658 ± 0.00072 in series [1] (293.15 K), 1.43557 ± 0.00076 in series [1] (298.15 K), 1.43055 ± 0.00076 in series [1] (313.15 K) and 1.42452 ± 0.00076 in series [1] (333.15 K). For the same compound, the mass density in series [2] (293.15 K) was determined as 1282.8 ± 2 kg/m3; in series [2] (298.15 K), 1278.3 ± 2 kg/m3; in series [2] (313.15 K), 1265.3 ± 2 kg/m3; in series [2] (333.15 K), 1248.2 ± 2 kg/m3.
